We go through eight compounds from US20260035370A1, “CRYSTAL FORM OF 8-CHLORO-3-PENTYL-3,7-DIHYDRO-1H-PURIN-2,6-DIONE COMPOUND AND PREPARATION METHOD THEREFOR” (Shanton Pharma Pte. Ltd., priority 2023, published 2026).

Structures are written as SMILES. Some results are limits rather than exact numbers.

Data set [1] is described as follows: In vivo PK after oral administration in SD rats. The note with it: for Half-life (t1/2), comparison in words: SD rats, PO, summary of Table 2; for t1/2: male SD rats, PO 2 mg/kg, plasma, mean ± SD, n = 3. The method, then:
Test samples: the compound of represented by formula (1), and crystal forms I and II of the compound of formula (1) were prepared according to Examples 1-3;
The tris (i.e. tris(hydroxymethyl)aminomethane) salt crystal form of the compound 8-chloro-3-pentyl-3,7-dihydro-1H-purine-2,6-dione was prepared with reference to WO2010/068581A1.
Oral administration (PO) of four samples:
The concentrations of the test substances were output using Analyst 1.6.2 from AB Sciex. Parameters such as mean, standard deviation, and variation coefficient were calculated using Microsoft Excel (those directly output by Analyst 1.6.2 were not recalculated). PK parameters were calculated using Pharsight Phoenix 6.2 software (NCA model).

Data set [2] can be described thus: Hygroscopicity test according to Chinese Pharmacopoeia. The format is physicochemical. The note with it: for Weight gain due to hygroscopicity: 25±1° C., 80%+2% relative humidity; for Hygroscopicity, summary in words: summary of hygroscopicity test. The method, then:
Test Example 3: Hygroscopicity Test (According to Chinese Pharmacopoeia, Guidelines for Drug
Hygroscopicity Testing, at 25±1° C., and 80%+2% Relative Humidity)
An appropriate amount of the sample from the examples was taken for the hygroscopicity test.

Data set [3] can be described thus: Stability of crystal form I in the formulation. It is filed as physicochemical. The method, then: (§1) The dehydration risk of the monohydrate crystal form was also evaluated by using VT-XRPD (variable temperature X-ray powder diffraction) in the present invention. […] The stability of crystal forms I and IV in the solid-state was also studied in the present invention.

The nature of data set [4]: Kinetic stability in the solid state (long-term storage). The format is physicochemical. To be noted: stored at 10° C.-30° C. in double-sealed aluminum packaging and plastic self-sealing bags for more than 6 years. Here is the method: as §1
A short description of data set [5]: Solid-state stability under accelerated conditions, open container. It is filed as physicochemical. To be noted: one month. The method, then:
as §1

The nature of data set [6]: Photostability test (influencing factor stability test). It is filed as physicochemical. To be noted: illuminance 5000 Lx ± 500 Lx. Here is the method: (§2) Test samples: crystal form I and crystal form II of the compound of formula (1) were prepared according to the above examples.
(§3) Test conditions for investigating the influencing factors:
Photostablity test: Crystal form I and crystal form II of the compound of formula (1) were laid on a dry and clean watch glass, and kept at an illuminance of 5000 Lx±500 Lx in a light box for 10 days. Samples were taken respectively on Day 5 and Day 10. The purity and the related substance content of the compound of formula (1) were determined and compared with those of the sample taken on Day 0.

Data set [7] is described as follows: Dehydration risk of monohydrate crystal form by VT-XRPD. The format is physicochemical. The method, then: as §1
Data set [8] is described as follows: High humidity test (influencing factor stability test). The note with it: for Change of purities/related substance contents: under high humidity and light exposure (summary of Table 1). It is filed as physicochemical. Here is the method:
as §2, §3
High humidity test: Crystal form I and crystal form II of the compound of formula (1) were laid on a dry and clean watch glass, and kept at 40° C.±2° C., and 75% RH±5% for 10 days. Samples were taken respectively on Day 5 and Day 10. The purity and the related substance content of the compound of formula (1) were determined and compared with those of the sample taken on Day 0.

Data set [9] is described as follows: Thermodynamic stability of crystal forms. The format is physicochemical. Here is the method: as §1
Data set [10] is described as follows: Transformation of crystal form on standing under ambient conditions. The format is physicochemical. The note with it: 25-30° C., 70-85% RH, about 10 hours.
Data set [11] concerns uric acid. To be noted: cited from earlier work.
For data set [12] the following is noted: compared with the free acid; cited from earlier work.
The conditions of data set [13]: cited from earlier work.
Where [14] appears, read: 40° C. ± 2° C./75% ± 5% RH, Day 5.
Where [15] appears, read: 40° C. ± 2° C./75% ± 5% RH, Day 10.
[16] abbreviates: Day 0, sample before exposure (baseline for both tests).

Regarding `CCCCCn1c(=O)[nH]c(=O)c2[nH]c(Cl)nc21` [Crystal form I, 8-chloro-3-pentyl-3,7-dihydro-1H-purine-2,6-dione], the “Half-life (t1/2), comparison in words” value in data set [1] is listed as “longer half-lifes”. Also, the t1/2 in [1] (2 mg/kg) was 5.28 ± 1.10 h. The “Weight gain due to hygroscopicity” value in [2] was under 0.2%. The “Hygroscopicity, summary in words” value in data set [2] is listed as “extremely low hygroscopicity”. Also, the “Content of crystal form III in the formulation” value in [3] (formulation stored at 25° C./60% RH for 9 months) and in data set [3] (formulation stored at 40° C./75% RH for 6 months) was “below LOD” each time. Further, in data set [4], the “Crystal form after long-term storage” value is listed as “remained unchanged”. The “Crystal form transformation after storage” value in [5] (25° C./92.5% RH) and in data set [5] (40° C./75% RH) was “did not transform” throughout. Further, the Purity in data set [6] (Day 5) was found to be 99.6%; in data set [6] (Day 10), 99.5%; in [8] (setting [14]) it was 99.5%; in data set [8] (setting [15]) it was 99.6%; in data set [8] (setting [16]), 99.6%. The Related substance was 0.44% in data set [6] (Day 5); 0.46% in data set [6] (Day 10); 0.46% in [8] (setting [14]); 0.42% in data set [8] (setting [15]); 0.45% in data set [8] (setting [16]). Besides, the Dehydration risk entry in [7] was “very low”. Besides, in data set [8], the “Change of purities/related substance contents” value was “changed very little”. The “Thermodynamic stability for pharmaceutical applications” value (“Thermodynamic stability” below) in data set [9] is “advantageous”.
As for `CCCCCn1c(=O)[nH]c(=O)c2[nH]c(Cl)nc21` [Crystal form II, 8-chloro-3-pentyl-3,7-dihydro-1H-purine-2,6-dione], in data set [1], the “Half-life (t1/2), comparison in words” value is “longer half-lifes”. The compound also displayed a t1/2 in data set [1] (2 mg/kg) of 4.26 ± 0.61 h. Moreover, the “Weight gain due to hygroscopicity” value in data set [2] is listed as under 0.2%. In addition, the “Hygroscopicity, summary in words” value in data set [2] was “extremely low hygroscopicity”. In addition, the Purity in [6] (Day 5), in [6] (Day 10), in [8] (setting [14]), in [8] (setting [15]) and in [8] (setting [16]) was 99.7% in each case. For the same compound, the Related substance in data set [6] (Day 5) is given as 0.31%; in [6] (Day 10) it was 0.32%; in data set [8] (setting [14]), 0.31%; in [8] (setting [15]) it was 0.32%; in data set [8] (setting [16]), 0.32%. For the same compound, in data set [8], the “Change of purities/related substance contents” value is recorded as “changed very little”. Also, in data set [9], the “Thermodynamic stability” value is listed as “advantageous”.
As to `CCCCCn1c(=O)[nH]c(=O)c2[nH]c(Cl)nc21` [Crystal form III, 8-chloro-3-pentyl-3,7-dihydro-1H-purine-2,6-dione], the “Thermodynamic stability” value in data set [9] is given as “suboptimal”.
With `CCCCCn1c(=O)[nH]c(=O)c2[nH]c(Cl)nc21` [Crystal form IV, 8-chloro-3-pentyl-3,7-dihydro-1H-purine-2,6-dione], the “Crystal form transformation after storage” value in [5] (25° C./92.5% RH) and in [5] (40° C./75% RH) was “transformed into crystal form I” each time.
On to `CCCCCn1c(=O)[nH]c(=O)c2[nH]c(Cl)nc21` [Crystal form V, 8-chloro-3-pentyl-3,7-dihydro-1H-purine-2,6-dione], for which the “Crystal form transformation under ambient conditions” value in data set [10] is on record as “transform into crystal form IV”.
Take `CCCCCn1c(=O)[nH]c(=O)c2[nH]c(Cl)nc21` [Formula (1), 8-chloro-3-pentyl-3,7-dihydro-1H-purine-2,6-dione]: the Uric acid-lowering effect result in [11] is reported as “good uric acid-lowering effect”.
The compound `CCCCCn1c(=O)[nH]c(=O)c2[nH]c(Cl)nc21` [Solid product of Example 1, 8-chloro-3-pentyl-3,7-dihydro-1H-purine-2,6-dione monohydrate, reference compound] registered a t1/2 in data set [1] (monohydrate, 2 mg/kg) of 2.32 ± 0.09 h.
The compound `CCCCCn1c(=O)[nH]c(=O)c2[nH]c(Cl)nc21.NC(CO)(CO)CO` [tris salt crystal form, 8-chloro-3-pentyl-3,7-dihydro-1H-purine-2,6-dione tris(hydroxymethyl)aminomethane salt] returned a t1/2 in data set [1] of 2.38 ± 0.17 h. Further, in data set [12], the Cmax entry is listed as “increased Cmax” and the Tmax entry was “decreased Tmax”. For the same compound, the “Solubility compared with the free acid” value in [13] was “higher solubility”.
